# Results taken from patent US20240368225A1, “SELECTIVE SMALL MOLECULE AGONISTS AND PARTIAL AGONISTS OF TRK RECEPTORS” (THE TEXAS A&M UNIVERSITY SYSTEM, priority 2021, published 2024).
# Like-named read-outs stand apart in the source and are kept apart here. *1 amine or outer side, *2 acyl side, *3 side chain or, on linkers, in order; H or OH if unused. Where a SMILES comes first, the peptide text is derived from it. Bridges are numbered along the chain shown (N, C = ends). X1 = COc1ccc(C2=C3C=C(S(=O)(=O)O)C([*:1])=[N+]3[B-](F)(F)n3c2cc(S(=O)(=O)O)c3[*:2])cc1
# Columns and labels:
# [1] = target: HEK293-TrkB cells (Homo sapiens, UniProt Q16620); experiment: HEK293-TrkB cell survival dose response (alamarBlue); format: cell-based; conditions: for EC50: EC50, HEK293-TrkB cell survival, serum-free media, 48-72 hours; for Partial or True Agonism: HEK293-TrkB cell survival
# Protocol: (§1) Cells were seeded at a density of 2000 cells per well. Cells were incubated in complete media for 24 hours. The media was aspirated, the cells washed twice with Dulbecco's Phosphate Buffered Saline, and the media was replaced with serum-free media to induce apoptosis unless otherwise halted. […] Cell survival was measured via alamarBlue assay after 48-72 hours to determine cell viability.
# (§2) The most promising compounds from the screen were selected for each cell line. Cells were treated with a serial dilution of the compound in serum free media with or without suboptimal neurotrophin and incubated for 48-72 hours, after which an alamarBlue assay was done to determine cell viability. Cell viability was normalized to DMSO (0%) and optimal neurotrophin (100%), depending on cell type. EC50 was calculated in Graphpad Prism using the dose response “[agonist] vs response—Variable slope” function. Data is presented as the mean +/−standard deviation of an experiment with 3-6 replicates. Results for selected compounds with HeLa-TrkA cells can be found in FIG. 19A-19D. Results for selected compounds with HEK293-TrkB cells can be found in FIG. 20A-20C. Results for selected compounds with NIH3T3-TrkC cells can be found in FIG. 21A-21D.
# [2] = test system: NIH3T3-TrkC cells; format: cell-based; conditions: NIH3T3-TrkC cell survival
# Protocol: as §1
# Cells were treated with a serial dilution of the compound in serum free media with or without suboptimal neurotrophin and incubated for 48-72 hours, after which an alamarBlue assay was done to determine cell viability. Cell viability was normalized to DMSO (0%) and optimal neurotrophin (100%), depending on cell type. EC50 was calculated in Graphpad Prism using the dose response “[agonist] vs response—Variable slope” function. Data is presented as the mean +/−standard deviation of an experiment with 3-6 replicates.
# [3] = test system: HeLa-TrkA cells; format: cell-based
# Protocol: as §1, §2
# [4] = target: TrkA (Homo sapiens, UniProt P04629); conditions: background statement; cited from earlier work
# [5] = test system: Goblet cells; conditions: in vitro, background statement; cited from earlier work
# [6] = target: T1, p75 (Homo sapiens, UniProt P08138); conditions: background statement; cited from earlier work
# T1 sequence (P08138 29-427): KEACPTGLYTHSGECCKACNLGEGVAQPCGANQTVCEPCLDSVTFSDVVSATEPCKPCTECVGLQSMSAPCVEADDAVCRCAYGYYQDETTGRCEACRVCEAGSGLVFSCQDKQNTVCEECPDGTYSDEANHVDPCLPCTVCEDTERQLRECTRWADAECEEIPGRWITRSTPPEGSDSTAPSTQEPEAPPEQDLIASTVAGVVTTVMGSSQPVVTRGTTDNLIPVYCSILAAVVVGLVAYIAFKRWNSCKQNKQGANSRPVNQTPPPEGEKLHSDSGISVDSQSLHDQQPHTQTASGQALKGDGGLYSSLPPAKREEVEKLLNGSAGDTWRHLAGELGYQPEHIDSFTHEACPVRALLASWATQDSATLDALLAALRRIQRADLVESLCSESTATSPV
# [7] = target: TrkC (Homo sapiens, UniProt Q16288); conditions: background statement; cited from earlier work
# [8] = without suboptimal neurotrophin
# [9] = HeLa-TrkA cell survival, + 0.2 nM NGF
# [10] = HeLa-TrkA cell survival, serum-free media, + 0.2 nM NGF (suboptimal), 48-72 hours, read-out: EC50
# [11] = HeLa-TrkA cell survival, serum-free media, without suboptimal neurotrophin, 48-72 hours, read-out: EC50
# [12] = HeLa-TrkA cell survival, without suboptimal neurotrophin
# HEK293-TrkB cells, sequence (Q16620 32-822): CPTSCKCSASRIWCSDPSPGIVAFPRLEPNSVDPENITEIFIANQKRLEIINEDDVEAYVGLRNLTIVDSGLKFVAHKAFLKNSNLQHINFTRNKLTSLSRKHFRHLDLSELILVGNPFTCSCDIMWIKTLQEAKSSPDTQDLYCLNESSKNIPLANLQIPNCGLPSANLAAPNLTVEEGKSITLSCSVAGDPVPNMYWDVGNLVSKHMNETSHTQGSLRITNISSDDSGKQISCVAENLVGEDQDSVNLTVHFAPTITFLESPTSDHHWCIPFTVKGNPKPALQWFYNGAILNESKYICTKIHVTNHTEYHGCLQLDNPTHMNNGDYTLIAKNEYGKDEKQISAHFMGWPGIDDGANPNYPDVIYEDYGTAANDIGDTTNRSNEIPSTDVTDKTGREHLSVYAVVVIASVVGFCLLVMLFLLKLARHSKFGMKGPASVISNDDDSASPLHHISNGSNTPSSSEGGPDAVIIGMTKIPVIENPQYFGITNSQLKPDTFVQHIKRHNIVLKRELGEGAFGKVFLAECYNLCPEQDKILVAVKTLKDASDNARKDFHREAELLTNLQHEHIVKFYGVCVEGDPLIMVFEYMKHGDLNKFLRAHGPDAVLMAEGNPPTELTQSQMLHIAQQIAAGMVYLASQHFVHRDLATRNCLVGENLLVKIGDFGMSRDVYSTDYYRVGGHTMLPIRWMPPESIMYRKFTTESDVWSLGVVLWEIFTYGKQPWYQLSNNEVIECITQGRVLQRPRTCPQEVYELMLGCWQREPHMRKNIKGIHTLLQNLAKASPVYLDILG
# TrkC, sequence (Q16288 32-839, species assumed): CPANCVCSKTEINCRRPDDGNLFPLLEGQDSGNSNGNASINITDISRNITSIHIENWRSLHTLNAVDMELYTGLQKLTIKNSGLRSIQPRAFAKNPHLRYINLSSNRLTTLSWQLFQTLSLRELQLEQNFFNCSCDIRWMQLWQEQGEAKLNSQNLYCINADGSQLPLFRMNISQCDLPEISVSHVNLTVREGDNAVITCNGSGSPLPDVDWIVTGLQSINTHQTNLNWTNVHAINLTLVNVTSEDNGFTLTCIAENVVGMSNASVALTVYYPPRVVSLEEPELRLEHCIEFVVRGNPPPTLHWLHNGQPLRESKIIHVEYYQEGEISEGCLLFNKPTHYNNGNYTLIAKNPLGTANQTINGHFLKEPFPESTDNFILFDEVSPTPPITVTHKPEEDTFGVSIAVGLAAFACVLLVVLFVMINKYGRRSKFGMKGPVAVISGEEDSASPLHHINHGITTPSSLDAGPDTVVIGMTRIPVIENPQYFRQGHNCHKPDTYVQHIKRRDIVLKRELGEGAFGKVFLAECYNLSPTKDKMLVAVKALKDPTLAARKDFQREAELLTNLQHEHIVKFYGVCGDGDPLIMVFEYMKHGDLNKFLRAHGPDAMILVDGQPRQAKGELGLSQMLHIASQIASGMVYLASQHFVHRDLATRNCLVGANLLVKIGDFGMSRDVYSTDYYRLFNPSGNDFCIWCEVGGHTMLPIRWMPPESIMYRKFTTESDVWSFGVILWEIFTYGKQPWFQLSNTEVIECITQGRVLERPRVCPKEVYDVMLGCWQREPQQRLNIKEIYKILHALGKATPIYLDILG
# TrkA, sequence (P04629 33-796, species assumed): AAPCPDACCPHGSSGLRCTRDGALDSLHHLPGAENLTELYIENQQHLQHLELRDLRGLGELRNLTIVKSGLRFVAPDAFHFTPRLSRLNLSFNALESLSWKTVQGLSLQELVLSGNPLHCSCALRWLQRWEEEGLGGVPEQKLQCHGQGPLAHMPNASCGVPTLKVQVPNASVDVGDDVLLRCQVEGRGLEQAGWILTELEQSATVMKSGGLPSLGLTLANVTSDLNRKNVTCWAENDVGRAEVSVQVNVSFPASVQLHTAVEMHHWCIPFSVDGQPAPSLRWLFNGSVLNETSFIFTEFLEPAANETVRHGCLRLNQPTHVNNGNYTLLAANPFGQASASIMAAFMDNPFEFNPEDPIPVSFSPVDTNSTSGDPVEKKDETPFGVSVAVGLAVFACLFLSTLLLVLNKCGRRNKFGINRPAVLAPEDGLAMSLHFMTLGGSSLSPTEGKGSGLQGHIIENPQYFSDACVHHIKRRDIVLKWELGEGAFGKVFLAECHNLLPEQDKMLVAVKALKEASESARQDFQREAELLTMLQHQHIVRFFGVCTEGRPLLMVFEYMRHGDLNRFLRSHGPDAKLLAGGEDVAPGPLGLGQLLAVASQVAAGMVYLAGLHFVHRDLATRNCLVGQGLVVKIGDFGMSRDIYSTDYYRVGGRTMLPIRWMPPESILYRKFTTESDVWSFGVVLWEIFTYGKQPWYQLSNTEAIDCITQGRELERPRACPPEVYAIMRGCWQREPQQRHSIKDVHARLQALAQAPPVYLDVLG
Compound,EC50 ([1]; + 0.6 nM BDNF (suboptimal)) [µM],"EC50 [1, 8] [µM]",Partial or True Agonism ([1]; + 0.6 nM BDNF),"Partial or True Agonism [1, 8]",Partial or True Agonism ([2]; + 0.2 nM NT3),"Partial or True Agonism [3, 12]",further results
CC[C@H](C)[C@@H]1NC(=O)[C@H](CC(=O)O)NC(=O)[C@@H](NC(C)=O)CSC2=[N+]3C(=C(c4ccc(OC)cc4)c4cc(S(=O)(=O)O)c(n4[B-]3(F)F)SC[C@@H](C(N)=O)NC(=O)CNC(=O)[C@H](CCCNC(=N)N)NC1=O)C=C2S(=O)(=O)O [5c(i)] (Ac-CDIRGC-NH2; linker 1-6 via X1),2.2,0.1,partial,true,partial,–,"Partial or True Agonism [2, 8]: true"
COc1ccc(C2=C3C=C(S(=O)(=O)O)C4=[N+]3[B-](F)(F)n3c2cc(S(=O)(=O)O)c3SC[C@@H](C(N)=O)NC(=O)[C@H](CCCCN)NC(=O)[C@H](CC(N)=O)NC(=O)[C@H](CC(N)=O)NC(=O)[C@H](CCC(=O)O)NC(=O)[C@@H](NC(C)=O)CS4)cc1 [5c(iii)] (Ac-CENNKC-NH2; linker 1-6 via X1),–,–,–,–,partial,–,"Partial or True Agonism [2, 8]: true"
COc1ccc(C2=C3C=C(S(=O)(=O)O)C4=[N+]3[B-](F)(F)n3c2cc(S(=O)(=O)O)c3SC[C@@H](C(N)=O)NC(=O)[C@H](CCC(N)=O)NC(=O)[C@H](CCCCN)NC(=O)[C@H](CCC(=O)O)NC(=O)[C@H](CC(=O)O)NC(=O)[C@@H](NC(C)=O)CS4)cc1 [5a(iii)m] (Ac-CDEKQC-NH2; linker 1-6 via X1),–,–,–,–,–,true,"Partial or True Agonism [3, 9]: partial; EC50 [3, 10]: 0.5 µM; EC50 [3, 11]: 2.4 µM"
CC[C@H](C)[C@@H]1NC(=O)[C@H](CC(=O)O)NC(=O)[C@@H]2C[C@@H](CN2)NC(=O)CNC(=O)[C@H](CCCNC(=N)N)NC1=O [3c(i)],–,–,–,–,partial,–,–
Tavilermide [D3],–,–,–,–,–,–,TrkA agonism [4]: partial TrkA agonist; glycoconjugated mucin secretion [5]: increased glycoconjugated mucin secretion; p75 activation [6]: does not activate p75; TrkC binding [7]: does not bind TrkC
CC[C@H](C)[C@@H]1NC(=O)[C@H](CC(N)=O)NC(=O)C(C(C)C)n2cc(nn2)CC(C(=O)N[C@@H](CCCCNS(=O)(=O)c2cccc3c(N(C)C)cccc23)C(=O)O)NC(=O)[C@H](Cc2ccccc2)NC(=O)[C@H](C(C)C)NC(=O)[C@H](CO)NC(=O)[C@H](CC(N)=O)NC(=O)[C@H](CC(N)=O)NC1=O (stereo partly drawn) [1a(ii)ext],–,–,–,–,–,true,EC50 [3]: 7.07 µM
COc1ccc(C2=C3C=C(S(=O)(=O)O)C4=[N+]3[B-](F)(F)n3c2cc(S(=O)(=O)O)c3SC[C@@H](C(N)=O)NC(=O)CNC(=O)[C@H](CO)NC(=O)[C@H](CCSC)NC(=O)[C@H](CC(=O)O)NC(=O)[C@@H](NC(C)=O)CS4)cc1 [5b(i)] (Ac-CDMSGC-NH2; linker 1-6 via X1),1.8,0.4,partial,true,–,–,–
CC[C@H](C)[C@@H]1NC(=O)[C@@H]2C[C@@H](CN2)NC(=O)[C@H](CO)NC(=O)[C@H](CC(N)=O)NC(=O)[C@H](CC(N)=O)NC1=O [3a(ii)],–,–,–,–,–,true,EC50 [3]: 10 µM
COc1ccc(C2=C3C=C(S(=O)(=O)O)C4=[N+]3[B-](F)(F)n3c2cc(S(=O)(=O)O)c3SC[C@@H](C(N)=O)NC(=O)[C@H](CO)NC(=O)[C@H](CC(N)=O)NC(=O)[C@H](CCC(N)=O)NC(=O)[C@H]([C@@H](C)O)NC(=O)[C@@H](NC(C)=O)CS4)cc1 [5c(ii)] (Ac-CTQNSC-NH2; linker 1-6 via X1),–,–,–,–,–,true,"Partial or True Agonism [3, 9]: partial; EC50 [3, 10]: 0.3 µM; EC50 [3, 11]: 4.5 µM"
COc1ccc(C2=C3C=C(S(=O)(=O)O)C4=[N+]3[B-](F)(F)n3c2cc(S(=O)(=O)O)c3SC[C@@H](C(N)=O)NC(=O)CNC(=O)[C@H](CCCCN)NC(=O)[C@H](CO)NC(=O)[C@H](C(C)C)NC(=O)[C@@H](NC(C)=O)CS4)cc1 [5b(ii)] (Ac-CVSKGC-NH2; linker 1-6 via X1),2.8,0.9,partial,true,–,–,–
